Assay results published in patent US11873354B2, “Photobase generator, compound, photoreactive composition, and reaction product” (Tokyo University of Science Foundation, priority 2019, dated 2024).
Entries after “also recorded” stand apart in the source; their conditions may differ.

Experiments:
Assay type in all cases: physicochemical
[1] = Color reaction experiment of phenol red (basicity, UV-Vis); conditions: for peak showing basicity near 570 nm: methanol solution with phenol red, UV-Vis
Procedure: Next, it was confirmed that 2-methyl-2-imidazoline (2MI), which is generated by light irradiation to the compound (1)-2, is a stronger base than cyclohexylamine (CyA), which is an aliphatic amine, by a color reaction experiment of phenol red. First, 2MI, CyA and diazabicycloundecene (DBU) were prepared as bases, and 1.5 mL of methanol solution, in which the concentration was prepared at 2.0×10^−5 mol/L, was added to 1.5 mL of a methanol solution in which each base was dissolved. The basicity of each base was evaluated by measuring the UV-Vis spectrum of each of the solution.

Solubility test = conditions: chloroform, dimethyl sulfoxide and the like; compared with compound (1)-2
[2] = Absorbance of compound in methanol under light irradiation (Test Examples 1, 2, 7, 8); conditions: methanol solution; for molar absorption coefficient ε313: 313 nm; for molar absorption coefficient ε365: 365 nm
Procedure: The above-obtained compound (1)-1 was dissolved in methanol so as to have a concentration of 2.5×10^−5 mol/L. Then, using an LED lamp, the illuminance was set to 50 mW/cm^2, the exposure dose was set to 0, 50, 150 or 300 mJ/cm^2, and the obtained methanol solution was irradiated with light having a wavelength of 365 nm. Then, the absorbance of the compound (1)-1 was measured.
The above-obtained compound (1)-1 was dissolved in methanol so as to have a concentration of 2.5×10^−5 mol/L. Then, using a mercury xenon lamp, the illuminance was set to 50 mW/cm^2, the exposure dose was set to 0, 50, 100 or 280 mJ/cm^2, and the obtained methanol solution was irradiated with light having a wavelength of 313 nm. Then, the absorbance of the compound (1)-1 was measured.
The above-obtained compound (1)-3 was dissolved in methanol so as to have a concentration of 1.5×10^−5 mol/L. Then, using an LED lamp, the illuminance was set to 50 mW/cm^2, the exposure dose was set to 0, 50, 100, 200 or 350 mJ/cm^2, and the obtained methanol solution was irradiated with light having a wavelength of 365 nm. Then, the absorbance of the compound (1)-3 was measured. In Test Example 7, the molar absorption coefficient was ε365=1.2×10^4 L/(mol cm).
The above-obtained compound (1)-3 was dissolved in methanol so as to have a concentration of 1.5×10^−5 mol/L. Then, using a mercury xenon lamp, the illuminance was set to 10 mW/cm^2, the exposure dose was set to 0, 50, 100, 200 or 350 mJ/cm^2, and the obtained methanol solution was irradiated with light having a wavelength of 313 nm. Then, the absorbance of the compound (1)-3 was measured. In Test Example 8, the molar absorption coefficient was ε313=2.8×10^4 L/(mol cm).

[3] = pH test paper after irradiation of aqueous solution; conditions: 365 nm
[4] = Preservation stability of liquid mixture with base-reactive compound (9)-301 (Test Examples 3, 4); conditions: with (9)-301 in methanol, dark place, 25° C., 6 days
Procedure: A base-reactive compound (9)-301 (0.10 g) as shown below, the compound (1)-1 (0.012 g, 8 molar % with respect to the methoxy group in the base-reactive compound), and methanol (0.51 g) were added in a glass bottle to prepare a liquid mixture.
The liquid mixture was stored in a dark place at 25° C. for 6 days. After storage for 6 days, the glass bottle was shaken or inverted to confirm that the liquid mixture in the glass bottle was liquid.
The base-reactive compound (9)-301 (0.10 g), the compound (2)-1 (0.013 g, 8 molar % with respect to the methoxy group in the base-reactive compound), and methanol (0.50 g) were added in a glass bottle to prepare a liquid mixture.
The liquid mixture was stored in a dark place at 25° C. for 4 days. After storage for 4 days, the glass bottle was shaken or inverted to confirm that the liquid mixture in the glass bottle was gelled.

molar absorption coefficient ε313 [2] | molar absorption coefficient ε365 [2] | SMILES | peak showing basicity near 570 nm [1] | also measured
28000 L/mol/cm | 12000 L/mol/cm | CC1=NCCN1C(=O)/C=C/c1cc(C(C)(C)C)cc(C(C)(C)C)c1O [Compound (1)-3] |  | solubility (Solubility test): improved in solubility
16000 L/mol/cm | 3100 L/mol/cm | CN(C)C(=NC(=O)/C=C/c1ccccc1O)N(C)C [Compound (1)-1] |  | state of liquid mixture after storage [4]: liquid

Second part, the compound before the results:

SMILES | molar absorption coefficient ε313 [2] | molar absorption coefficient ε365 [2] | peak showing basicity near 570 nm [1] | also measured
C1CCC2=NCCCN2CC1 [DBU, diazabicycloundecene] |  |  | a peak showing basicity appeared near 570 nm | 
NC1CCCCC1 [CyA, cyclohexylamine] |  |  | no peak showing basicity appeared near 570 nm | 
CC1=NCCN1 [Compound 2MI, 2-methyl-2-imidazoline] |  |  | a peak showing basicity appeared near 570 nm | relative basicity ([1]; from peak intensity near 570 nm): weaker than that of DBU; also recorded: stronger than that of CyA
CC1=NCCN1C(=O)/C=C/c1ccccc1O [Compound (1)-2] |  |  |  | pH test paper after light irradiation [3]: discolored to the basic side
